Measured values as given in US20190016689A1, “NOVEL FLUORINATED QUINAZOLINE DERIVATIVES AS EGFR INHIBITORS” (TRILLIUM THERAPEUTICS INC., priority 2016, published 2019).

Assays:
SK-MEL-28 = assay: NCI screening panel (SRB); assay type: cell-based; settings: Homo sapiens, SK-MEL-28 (Melanoma), 48 h; for CC50: read-out: LC50 (the source's name)
NCI/ADR-RES = assay: NCI screening panel (SRB); assay type: cell-based; settings: Homo sapiens, NCI/ADR-RES (Ovarian), 48 h; for CC50: read-out: LC50 (the source's name)
EGFR (G719S) = EGFR (G719S) (Homo sapiens, UniProt P00533, G719S); assay: Kinase assays, selectivity panel (qPCR); settings: read-out: % Control @ 300 nM
EGFR (G719S), sequence (P00533 25-1210 G719S): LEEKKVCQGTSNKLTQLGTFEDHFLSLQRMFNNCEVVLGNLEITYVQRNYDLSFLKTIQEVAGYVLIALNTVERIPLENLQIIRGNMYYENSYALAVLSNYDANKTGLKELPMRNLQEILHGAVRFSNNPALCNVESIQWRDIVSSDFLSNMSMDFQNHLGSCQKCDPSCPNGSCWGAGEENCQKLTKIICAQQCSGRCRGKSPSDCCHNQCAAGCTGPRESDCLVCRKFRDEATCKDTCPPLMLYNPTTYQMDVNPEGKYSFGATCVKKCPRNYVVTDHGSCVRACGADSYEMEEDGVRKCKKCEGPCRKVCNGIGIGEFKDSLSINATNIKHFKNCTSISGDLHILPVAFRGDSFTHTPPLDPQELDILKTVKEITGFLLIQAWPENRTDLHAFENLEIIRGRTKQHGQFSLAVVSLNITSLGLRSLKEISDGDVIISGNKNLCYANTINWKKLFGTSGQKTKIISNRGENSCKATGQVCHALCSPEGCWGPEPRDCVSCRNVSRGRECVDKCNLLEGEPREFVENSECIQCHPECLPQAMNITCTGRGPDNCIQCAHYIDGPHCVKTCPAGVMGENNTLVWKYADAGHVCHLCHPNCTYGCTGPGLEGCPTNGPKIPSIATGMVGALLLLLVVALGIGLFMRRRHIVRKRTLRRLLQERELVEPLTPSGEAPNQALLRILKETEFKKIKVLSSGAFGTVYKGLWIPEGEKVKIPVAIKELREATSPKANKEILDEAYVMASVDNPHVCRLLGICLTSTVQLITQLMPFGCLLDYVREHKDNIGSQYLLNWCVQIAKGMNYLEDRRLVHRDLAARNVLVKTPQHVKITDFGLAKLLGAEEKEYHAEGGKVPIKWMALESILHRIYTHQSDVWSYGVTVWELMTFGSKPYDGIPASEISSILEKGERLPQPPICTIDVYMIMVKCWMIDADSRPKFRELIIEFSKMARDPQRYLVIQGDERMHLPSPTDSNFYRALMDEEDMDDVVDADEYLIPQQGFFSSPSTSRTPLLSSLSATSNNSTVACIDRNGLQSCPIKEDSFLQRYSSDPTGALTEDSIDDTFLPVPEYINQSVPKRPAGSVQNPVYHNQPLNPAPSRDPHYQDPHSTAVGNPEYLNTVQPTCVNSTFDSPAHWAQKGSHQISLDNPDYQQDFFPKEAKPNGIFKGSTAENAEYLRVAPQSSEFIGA

EPHA6 = biological target: T1, EPHA6 (Homo sapiens, UniProt Q9UF33); assay: Kinase assays, selectivity panel (qPCR); settings: read-out: % Control @ 300 nM
T1 sequence (Q9UF33 23-1036): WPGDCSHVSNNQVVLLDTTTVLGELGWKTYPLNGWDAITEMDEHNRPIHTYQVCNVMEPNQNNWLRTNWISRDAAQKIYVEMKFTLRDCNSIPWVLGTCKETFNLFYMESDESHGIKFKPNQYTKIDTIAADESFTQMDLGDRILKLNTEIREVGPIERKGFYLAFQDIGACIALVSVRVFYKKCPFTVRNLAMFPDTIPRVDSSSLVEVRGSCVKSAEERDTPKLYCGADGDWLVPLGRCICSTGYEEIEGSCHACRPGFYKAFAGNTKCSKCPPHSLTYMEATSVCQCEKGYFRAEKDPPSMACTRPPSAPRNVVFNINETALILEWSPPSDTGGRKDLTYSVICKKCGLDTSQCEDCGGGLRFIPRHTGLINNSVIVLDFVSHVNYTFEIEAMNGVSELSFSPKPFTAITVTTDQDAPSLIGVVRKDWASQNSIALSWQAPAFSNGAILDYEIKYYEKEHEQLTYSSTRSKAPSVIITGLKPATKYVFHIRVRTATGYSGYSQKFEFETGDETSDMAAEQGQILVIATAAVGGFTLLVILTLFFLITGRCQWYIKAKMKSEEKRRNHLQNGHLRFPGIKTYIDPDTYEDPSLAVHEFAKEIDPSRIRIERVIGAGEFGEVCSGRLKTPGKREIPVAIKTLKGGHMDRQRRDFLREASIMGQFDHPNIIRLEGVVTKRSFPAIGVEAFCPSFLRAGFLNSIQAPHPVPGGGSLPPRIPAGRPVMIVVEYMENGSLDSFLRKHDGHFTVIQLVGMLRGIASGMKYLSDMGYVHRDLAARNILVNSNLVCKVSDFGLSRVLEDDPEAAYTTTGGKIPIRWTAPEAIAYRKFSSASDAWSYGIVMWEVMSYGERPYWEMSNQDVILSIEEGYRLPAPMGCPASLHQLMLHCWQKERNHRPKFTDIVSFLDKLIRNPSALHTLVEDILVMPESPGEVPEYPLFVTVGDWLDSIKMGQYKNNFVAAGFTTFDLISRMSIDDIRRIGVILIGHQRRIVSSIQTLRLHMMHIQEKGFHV

[1] = Chemical stability in PBS pH 7.4; assay type: physicochemical; settings: 37° C.
Protocol: For PBS pH7.4: Prepare 100 mM bulk Na2HPO4 solution and 100 mM bulk NaH2PO4 solution. Place Na2HPO4 solution on a stirrer and slowly add NaH2PO4 solution until the pH is nearly 7.4 (±0.05).
The working solutions of test compound and control compound chlorambucil are prepared in DMSO at the concentration of 500 μM.
Place 2 μL of working solution of each sample in order into their proper 96-well rack. Add 198 μL of pre-incubated PBS pH 7.4 or simulated intestinal fluid into each vial of the cap-less Sample plate to achieve a final concentration of […]. The assay is performed in duplicate. Seal using a molded PTFE/Silicone plug. Then transfer the Sample plate to the Eppendorf Thermomixer Comfort plate shaker and shake at 37° C. at 1100 RPM. Take one of the glass vials at designated time points including 0, 30, 60, 120 and 240 min. For each time point, the initiation of the reaction is staggered so all time points are terminated with 1000 μL of cold quench solution (acetonitrile containing internal standards (IS, 200 nM Labetalol, 100 nM Alprazolam and 2 μM Ketoprofen) at the same time. Vortex for 1 minute. Centrifuge the samples in plate at 3,220 g for 5 minutes at 4° C. Transfer 100 μL of the supernatant to a new plate. The supernatant may be diluted with 100 μL or 200 μL water according to the LC/MS signal response and peak shape. Mix well and analyze samples using LC/MS/MS.

Plasma stability = assay type: in vitro ADME
Protocol: Thaw the frozen plasma immediately in a 37° C. water bath. Centrifuge plasma at 3,220 g for 10 minutes at room temperature to remove clots and collect supernatant into a fresh tube. Check and record the pH of the plasma. (Note: a. Only use plasma that has been thawed no more than twice since arrival. b. Only use plasma within the range of pH 7 to pH 8.)
The working solutions of test compounds and control compound are prepared in 50% water/50% acetonitrile and DMSO at the concentration of 100 μM, respectively. Propantheline is used as positive control for human and mouse plasma stability assay and mevinolin is used as the positive control for dog and rat plasma stability assay.
Add 5 μL of 100 μM working solution to 495 μL of pre-incubated human, monkey, dog, rat or mouse plasma to reach a final concentration of 1 μM. The final concentration of organic solvents is 0.5%. The assay is performed in duplicate. Incubate the reaction samples at 37° C. water bath with shaking at approximately 60 rpm. Take aliquots of 50 μL from the reaction samples at 0, 15, 30, 45, 60 and 120 minutes. Stop the reaction by adding 300 μL of room temperature quench solution (Acetonitrile containing internal standards (IS, 200 nM Labetalol, 100 nM Alprazolam and 2 μM Ketoprofen)). Vortex for 5 minutes. Centrifuge samples in plate at 3,220 g for 30 minutes at room temperature to precipitate protein. Transfer 100 μL of the supernatant to a new plate. The supernatant may be diluted with 100 μL or 200 μL water according to the LC/MS signal response and peak shape. Mix well and analyze samples using LC/MS/MS.

SMILES	GI50 (SK-MEL-28)	CC50 (SK-MEL-28)	GI50 (NCI/ADR-RES)	CC50 (NCI/ADR-RES)	remaining activity at 0.3 µM (EGFR (G719S))	remaining activity at 0.3 µM (EPHA6)	Remaining Percentage (%) in PBS at pH 7.4 ([1]; 120 min)	Remaining Percentage (%) in PBS at pH 7.4 ([1]; 240 min)	Dog Remaining Percentage (%) (Plasma stability; 60 min)	Human Remaining Percentage (%) (Plasma stability; 60 min)	Monkey Remaining Percentage (%) (Plasma stability; 60 min)	Mouse Remaining Percentage (%) (Plasma stability; 60 min)	Rat Remaining Percentage (%) (Plasma stability; 60 min)	Dog Remaining Percentage (%) (Plasma stability; 120 min)	Human Remaining Percentage (%) (Plasma stability; 120 min)	Monkey Remaining Percentage (%) (Plasma stability; 120 min)	Mouse Remaining Percentage (%) (Plasma stability; 120 min)	Rat Remaining Percentage (%) (Plasma stability; 120 min)
O=C(/C=C/CN1CCCCC1)Nc1cc2c(Nc3ccc(F)c(Cl)c3F)ncnc2cc1OCCOC(F)F.O=C(O)/C=C\C(=O)O.O=C(O)/C=C\C(=O)O [Example I-10-MA, (E)-N-[4-(3-chloro-2,4-difluoro-anilino)-7-[2-(difluoromethoxy)ethoxy]quinazolin-6-yl]-4-(1-piperidyl)but-2-enamide di-maleic acid salt]	2490 nM	36500 nM	1000 nM	> 100000 nM	0%	3.9%	–	–	–	–	–	–	–	–	–	–	–	–
CN(C)C/C=C/C(=O)Nc1cc2c(Nc3ccc(F)c(Cl)c3F)ncnc2cc1OCCOC(F)F.O=C(O)/C=C\C(=O)O.O=C(O)/C=C\C(=O)O [Example I-9-MA, (E)-N-[4-(3-chloro-2,4-difluoro-anilino)-7-[2-(difluoromethoxy)ethoxy]quinazolin-6-yl]-4-(dimethylamino)but-2-enamide di-maleic acid salt]	2290 nM	36200 nM	839 nM	> 100000 nM	0.15%	3.5%	–	–	–	–	–	–	–	–	–	–	–	–
CN(C)C/C=C/C(=O)Nc1cc2c(Nc3cccc(Cl)c3F)ncnc2cc1OCCOC(F)F.O=C(O)/C=C\C(=O)O [Example I-5-MA, (E)-N-[4-(3-chloro-2-fluoro-anilino)-7-[2-(difluoromethoxy)ethoxy]quinazolin-6-yl]-4-(dimethylamino)but-2-enamide dimaleic acid salt]	–	–	–	–	–	–	94.70%	91.17%	104.57%	101.95%	85.79%	95.45%	99.28%	102.13%	95.45%	83.32%	105.25%	95.14%
CN(C)C/C=C/C(=O)Nc1cc2c(Nc3ccc(F)c(Cl)c3)ncnc2cc1O[C@H]1CCOC1 [Afatinib, reference compound]	–	–	–	–	–	–	101.12%	105.37%	111.61%	94.78%	102.98%	101.81%	101.43%	102.15%	98.62%	97.24%	106.59%	95.31%
